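Dose response: 5 concentrations. Exposure: 48 h. Format: 96-well plates. Endpoint: linear interpolation; highest concentration if not reached. TGI denotes the concentration required for complete inhibition of growth.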
What was measured:
Test in all cases: NCI tumour cell line growth inhibition, 48 h
SF-268 CNS = tested on: SF-268 CNS
HT29 colon = tested on: HT29 colon
SK-OV-3 ovarian = tested on: SK-OV-3 ovarian
TK-10 renal = tested on: TK-10 renal
SW-620 colon = tested on: SW-620 colon
NCI/ADR-RES ovarian = tested on: NCI/ADR-RES ovarian
KM12 colon = tested on: KM12 colon
NCI-H23 lung = tested on: NCI-H23 lung
UO-31 renal = tested on: UO-31 renal
SK-MEL-2 melanoma = tested on: SK-MEL-2 melanoma
SR leukemia = tested on: SR leukemia
CAKI-1 renal = tested on: CAKI-1 renal
RXF 393 renal = tested on: RXF 393 renal
HL-60(TB) leukemia = tested on: HL-60(TB) leukemia
HCT-15 colon = tested on: HCT-15 colon
COLO 205 colon = tested on: COLO 205 colon
LOX IMVI melanoma = tested on: LOX IMVI melanoma
ACHN renal = tested on: ACHN renal
MALME-3M melanoma = tested on: MALME-3M melanoma
NCI-H460 lung = tested on: NCI-H460 lung
M14 melanoma = tested on: M14 melanoma
SF-539 CNS = tested on: SF-539 CNS
MOLT-4 leukemia = tested on: MOLT-4 leukemia
OVCAR-5 ovarian = tested on: OVCAR-5 ovarian
OVCAR-3 ovarian = tested on: OVCAR-3 ovarian
HCT-116 colon = tested on: HCT-116 colon
NCI-H226 lung = tested on: NCI-H226 lung
HOP-62 NSCLC = tested on: HOP-62 NSCLC
MDA-MB-231 breast = tested on: MDA-MB-231 breast
UACC-257 melanoma = tested on: UACC-257 melanoma
NCI-H522 lung = tested on: NCI-H522 lung
786-0 renal = tested on: 786-0 renal
U251 CNS = tested on: U251 CNS
HS 578T breast = tested on: HS 578T breast
SF-295 CNS = tested on: SF-295 CNS
SK-MEL-28 melanoma = tested on: SK-MEL-28 melanoma
MDA-MB-435 = tested on: MDA-MB-435
IGROV1 ovarian = tested on: IGROV1 ovarian
MCF7 breast = tested on: MCF7 breast
SNB-75 CNS = tested on: SNB-75 CNS
A549 NSCLC = tested on: A549 NSCLC
OVCAR-8 ovarian = tested on: OVCAR-8 ovarian
CCRF-CEM leukemia = tested on: CCRF-CEM leukemia
SN12C renal = tested on: SN12C renal
HOP-92 NSCLC = tested on: HOP-92 NSCLC
EKVX NSCLC = tested on: EKVX NSCLC
K-562 leukemia = tested on: K-562 leukemia
T-47D breast = tested on: T-47D breast
HCC-2998 colon = tested on: HCC-2998 colon
SNB-19 CNS = tested on: SNB-19 CNS
BT-549 breast = tested on: BT-549 breast
RPMI-8226 leukemia = tested on: RPMI-8226 leukemia
DU-145 prostate = tested on: DU-145 prostate
SK-MEL-5 melanoma = tested on: SK-MEL-5 melanoma
OVCAR-4 ovarian = tested on: OVCAR-4 ovarian
MDA-N = tested on: MDA-N
PC-3 prostate = tested on: PC-3 prostate
UACC-62 melanoma = tested on: UACC-62 melanoma
A498 renal = tested on: A498 renal

With `CCOC(=O)Cc1ccc(Nc2nc3cc(F)c(F)cc3nc2C(=O)OCC)cc1` the TGI (SF-268 CNS) was over 100 µM, the TGI (HT29 colon) was over 100 µM and the TGI (SK-OV-3 ovarian) was over 100 µM. It also gave a TGI (TK-10 renal) of over 100 µM, a TGI (SW-620 colon) of over 100 µM and a TGI (NCI/ADR-RES ovarian) of over 100 µM. The TGI (KM12 colon) was over 100 µM, the TGI (NCI-H23 lung) was 66.5 µM and the TGI (UO-31 renal) was 3.15 µM. For the same molecule, the TGI (SK-MEL-2 melanoma) was 92.2 µM, the TGI (SR leukemia) was over 100 µM and the TGI (CAKI-1 renal) was 42.9 µM. It also gave a TGI (RXF 393 renal) of over 100 µM, a TGI (HL-60(TB) leukemia) of over 100 µM and a TGI (HCT-15 colon) of over 100 µM. It also gave a TGI (COLO 205 colon) of over 100 µM, a TGI (LOX IMVI melanoma) of over 100 µM and a TGI (ACHN renal) of 33.5 µM. It also gave a TGI (MALME-3M melanoma) of over 100 µM, a TGI (NCI-H460 lung) of over 100 µM and a TGI (M14 melanoma) of over 100 µM. It also gave a TGI (SF-539 CNS) of over 100 µM, a TGI (MOLT-4 leukemia) of over 100 µM and a TGI (OVCAR-5 ovarian) of over 100 µM. The TGI (OVCAR-3 ovarian) was over 100 µM, the TGI (HCT-116 colon) was over 100 µM and the TGI (NCI-H226 lung) was over 100 µM. The TGI (HOP-62 NSCLC) was over 100 µM, the TGI (MDA-MB-231 breast) was 9.08 µM and the TGI (UACC-257 melanoma) was over 100 µM. For the same molecule, the TGI (NCI-H522 lung) was 35.5 µM, the TGI (786-0 renal) was over 100 µM and the TGI (U251 CNS) was over 100 µM. For the same molecule, the TGI (HS 578T breast) was over 100 µM, the TGI (SF-295 CNS) was over 100 µM and the TGI (SK-MEL-28 melanoma) was over 100 µM. The TGI (MDA-MB-435) was over 100 µM, the TGI (IGROV1 ovarian) was over 100 µM and the TGI (MCF7 breast) was over 100 µM. For the same molecule, the TGI (SNB-75 CNS) was over 100 µM, the TGI (A549 NSCLC) was over 100 µM and the TGI (OVCAR-8 ovarian) was over 100 µM. It also gave a TGI (CCRF-CEM leukemia) of over 100 µM, a TGI (SN12C renal) of over 100 µM and a TGI (HOP-92 NSCLC) of 54.6 µM. For the same molecule, the TGI (EKVX NSCLC) was 56.4 µM, the TGI (K-562 leukemia) was over 100 µM and the TGI (T-47D breast) was over 100 µM. It also gave a TGI (HCC-2998 colon) of 69.6 µM, a TGI (SNB-19 CNS) of over 100 µM and a TGI (BT-549 breast) of over 100 µM. The TGI (RPMI-8226 leukemia) was over 100 µM, the TGI (DU-145 prostate) was over 100 µM and the TGI (SK-MEL-5 melanoma) was over 100 µM. It also gave a TGI (OVCAR-4 ovarian) of over 100 µM, a TGI (MDA-N) of over 100 µM and a TGI (PC-3 prostate) of over 100 µM. The TGI (UACC-62 melanoma) was over 100 µM.

`CC(NNC(=S)N1CCCC1)c1cccnn1` (centres undefined) showed a TGI (HT29 colon) of over 100 µM, a TGI (SK-OV-3 ovarian) of over 65.5 µM and a TGI (TK-10 renal) of over 31.5 µM. It also gave a TGI (SW-620 colon) of over 100 µM, a TGI (NCI/ADR-RES ovarian) of over 62.9 µM and a TGI (KM12 colon) of over 100 µM. It also gave a TGI (NCI-H23 lung) of over 100 µM, a TGI (UO-31 renal) of 3.08 µM and a TGI (SK-MEL-2 melanoma) of over 100 µM. For the same molecule, the TGI (SR leukemia) was over 100 µM, the TGI (CAKI-1 renal) was over 100 µM and the TGI (RXF 393 renal) was 0.671 µM. It also gave a TGI (HL-60(TB) leukemia) of over 100 µM, a TGI (HCT-15 colon) of over 100 µM and a TGI (COLO 205 colon) of over 100 µM. The TGI (LOX IMVI melanoma) was over 100 µM, the TGI (ACHN renal) was 4.68 µM and the TGI (MALME-3M melanoma) was over 100 µM. For the same molecule, the TGI (NCI-H460 lung) was over 81.5 µM, the TGI (SF-539 CNS) was 4.36 µM and the TGI (MOLT-4 leukemia) was over 100 µM. It also gave a TGI (OVCAR-5 ovarian) of 8.71 µM, a TGI (OVCAR-3 ovarian) of over 100 µM and a TGI (HCT-116 colon) of over 44 µM. It also gave a TGI (NCI-H226 lung) of over 26.5 µM, a TGI (HOP-62 NSCLC) of over 31 µM and a TGI (MDA-MB-231 breast) of over 100 µM. The TGI (786-0 renal) was over 100 µM, the TGI (U251 CNS) was over 100 µM and the TGI (HS 578T breast) was over 100 µM. It also gave a TGI (SF-295 CNS) of over 28.2 µM, a TGI (SK-MEL-28 melanoma) of over 31.6 µM and a TGI (MDA-MB-435) of over 100 µM. The TGI (IGROV1 ovarian) was over 59.3 µM, the TGI (MCF7 breast) was 5.33 µM and the TGI (SNB-75 CNS) was over 28.7 µM. It also gave a TGI (CCRF-CEM leukemia) of over 100 µM, a TGI (SN12C renal) of over 100 µM and a TGI (K-562 leukemia) of over 100 µM. For the same molecule, the TGI (T-47D breast) was over 100 µM, the TGI (HCC-2998 colon) was over 100 µM and the TGI (SNB-19 CNS) was over 100 µM. For the same molecule, the TGI (BT-549 breast) was over 56.1 µM, the TGI (RPMI-8226 leukemia) was over 100 µM and the TGI (A498 renal) was 97.5 µM. For the same molecule, the TGI (DU-145 prostate) was over 70 µM, the TGI (SK-MEL-5 melanoma) was 5.39 µM and the TGI (OVCAR-4 ovarian) was over 76.9 µM. It also gave a TGI (MDA-N) of over 100 µM, a TGI (PC-3 prostate) of over 100 µM and a TGI (UACC-62 melanoma) of 7.45 µM.

Reference: PubChem BioAssay (NCI)
